Test results from patent US9956268B2, “Neuropeptide Y treatment of autoimmune disease” (priority 2012, dated 2018).

Columns and labels:
[1] = system: CNS lymphocytes of recipients stimulated with MOG peptide 35-55; assay: Cytokine secretion, CNS lymphocytes of recipients of donor cells; type: in vivo, B6 mice
Method: (§1) Thirty days after inoculation and after peak score of clinical attack, all spleens from each treatment group were aseptically removed, single cell suspensions prepared, and red cell lysis performed by adding 2-3 ml sterile water to single cells for 5 seconds, and once the solution became transparent, adding AIM-V media to a 50 ml tube. Splenocytes from grouped saline (mock) fed, 1 μg or 10 μg neuropeptide Y fed mice were re-stimulated with MOG peptide 35-55 at a final concentration of 10 μg/ml for 48 hours in serum free medium (AIM-V medium, Gibco BRL, Grand Island, N.Y.) with 2×10^5 cells/[…] in triplicate in 96 well U-bottomed plates in a humidified 5% CO2/95% air incubator at 37° C. Following incubation, cells were collected, washed twice in PBS, and viability determined by standard Trypan blue exclusion. Viable concentrations were adjusted to 10^7 cells/0.5 ml Dulbecco's PBS immediately prior to i.p. injection into active MOG peptide 35-55 immunized recipient mice during ongoing disease (˜day 17 post immunization). Following administration of neuropeptide Y or adoptive transfer, clinical outcome is measured by comparing the difference between group mean active treatment and placebo group scores from day 17-30 post immunization.
(§2) Spleens and spinal cords (CNS) from each treatment group were aseptically removed and single cell suspensions prepared. In spinal cords, whole cords were passed through a cell strainer for CNS lymphocytes (B & D, Franklin Lakes, N.J.) and spun at 600 rpm several times to separate lymphocytes from CNS tissue. Splenocytes and cord lymphocytes from grouped saline fed or 10 mcg NPY fed mice were stimulated with 10 mcg MOG peptide 35-55×48 hours as previously described (5, 6). Murine cytokine responses were examined using a customized RayBio Mouse Cytokine Inflammatory Antibody Array including innate cytokine IL-1β and TNF-α, IL-17 (Teff), Th1-like (IL-2, IFN-γ), Th2-like cytokines (IL-4, IL-10, IL-13) and IL-12p70 using the RayBioantibody array Analysis tool application (RayBiotech, Inc, Norcross, Ga.). Results were grouped from mice fed saline or mice fed with NPY from grouped samples of two separate experiments (each sample performed in duplicate) and expressed as pg/ml±SEM (student t-test).

CD4+CD25+FoxP3+ Treg = assay: Phenotypic analysis (FACS) of Treg frequency; type: in vivo, B6 mice; conditions: data not shown
Method: CD25 and FOXP3 expression by CD3+CD4+ lymphocytes was analyzed using the Beckman Coulter 10-Color Gallios Flow Cytometer and mouse regulatory T Cell Staining Kit with PE Foxp3 FJK-16s, FITC CD4, APC CD25 (eBioscience, San Diego, Calif.) following the manufacturer's instructions.

[2] = system: actively immunized recipients (ongoing disease); assay: Adoptive transfer of in vitro neuropeptide Y treated MOG restimulated activated macrophages; type: in vivo; conditions: preliminary experiments
[3] = system: MOG peptide 35-55 immunized B6 mice (experimental autoimmune encephalomyelitis); assay: Active EAE, ingested neuropeptide Y, clinical score; type: in vivo; conditions: vs placebo, p<0.001 ANOVA
[4] = system: splenocytes of recipients stimulated with MOG peptide 35-55; assay: Cytokine secretion, splenic lymphocytes of recipients of donor cells; type: in vivo, B6 mice
Method: as §1, §2

[5] = system: CNS lymphocytes stimulated with MOG peptide 35-55; assay: Cytokine secretion, MOG re-stimulated CNS (spinal cord) lymphocytes of fed mice; type: in vivo, B6 mice
Method: as §2

[6] = Toxicity on extended oral administration; type: in vivo; conditions: orally administered to mice over an extended time period
[7] = system: active MOG peptide 35-55 immunized recipient mice; assay: Adoptive transfer of splenocytes from neuropeptide Y fed donors, clinical score of recipients; type: in vivo, B6 mice; conditions: placebo donors maximum 2.3
[8] = system: spinal cords of recipient mice; assay: Spinal cord histology, inflammatory foci, recipients of adoptively transferred cells; type: in vivo, B6 mice; conditions: thirteen days following adoptive transfer, placebo donors 7.48±0.28
Method: as §1, with “Viable concentrations were adjusted to 10^7 cells/0.5 ml Dulbecco's PBS immediately prior to i.p. injection into active MOG peptide 35-55 immunized recipient mice during ongoing disease (˜day 17 post immunization).” left out
Following sacrifice, spinal cords were removed and immersion fixed in 10% neutral buffered formalin for a minimum of two weeks. […] Cord sections were evaluated independently for foci of inflammation by a blinded observer (SAB), without knowledge of the treatment status of the mice prior to sacrifice. […]

[9] = system: experimental autoimmune encephalomyelitis; conditions: parenteral, mice; cited from earlier work
[10] = system: splenic lymphocytes stimulated with MOG peptide 35-55; assay: Cytokine secretion, MOG re-stimulated splenic lymphocytes of fed mice; type: in vivo, B6 mice
Method: as §2

[11] = system: spinal cords of MOG peptide 35-55 immunized B6 mice; assay: Spinal cord histology, inflammatory foci, actively fed mice; type: in vivo; conditions: thirty days following immunization, mock fed 11.6±0.5
Method: Following sacrifice, spinal cords were removed and immersion fixed in 10% neutral buffered formalin for a minimum of two weeks. After fixation, cords were sectioned in entirety in the horizontal plane at approximately 3 mm intervals and processed to paraffin. Paraffin blocks were sectioned at 6-8 microns, and step sections were stained with hematoxylin and eosin and examined by light microscopy. Cord sections were evaluated independently for foci of inflammation by a blinded observer (SAB), without knowledge of the treatment status of the mice prior to sacrifice. Spinal cord tissue was sampled in an identical fashion for each animal and numbers of inflammatory foci per high-powered field (HPF) (>20 perivascular lymphocytes) in the parenchyma were counted.

[12] = system: innate immune cytokines IL-1β or TNF-α; conditions: oral, recent EAE experiments; cited from earlier work
[13] = CNS lymphocytes of recipients of fed donor cells vs mock
[14] = CNS lymphocytes of recipients, 10 mcg fed group vs mock
[15] = splenic lymphocytes of recipients of fed donor cells vs mock
[16] = both fed groups (1 & 10 mcg) vs mock fed

Substance: Neuropeptide Y
- IL-1β level [1, 13]: significant decreases
- IL-17 (Teff) level [1, 13]: significant decreases
- IL-12 level ([1]; CNS lymphocytes of recipients of fed donor cells vs mock, p<0.03 (FIG. 8 legend)): decreased
- MOG induced IL-10 production ([1]; CNS lymphocytes of recipients, 1 mcg fed group vs mock): increased
- IFN-γ level [1, 14]: significant decreases
- IL-2 level [1, 14]: significant decreases
- TNF-α level [1, 14]: significant decreases
- MOG induced IL-13 production ([1]; CNS lymphocytes of recipients, both dosed groups vs mock): increased
- CD4+CD25+FoxP3+ cell frequency (CD4+CD25+FoxP3+ Treg; actively fed mice vs mock fed): no significant increase
- CD4+CD25+FoxP3+ cell frequency (CD4+CD25+FoxP3+ Treg; recipients of actively fed donor cells vs mock): no significant increase
- ongoing disease after adoptive transfer [2]: robust inhibition
- group clinical score ([3]; 1 mcg fed (gavage) from day 17, days 17-30 post immunization): significant decreases in group clinical scores
- group clinical score ([3]; 10 mcg fed (gavage) from day 17, days 17-30 post immunization): significant decreases in group clinical scores
- IFN-γ level [4, 15]: significant decreases
- IL-1β level [4, 15]: significant decreases
- IL-12 level [4, 15]: significant decreases
- IL-17 (Teff) level [4, 15]: significant decreases
- MOG induced IL-13 production [4, 15]: increased
- TNF-α level [4, 15]: significant decreases
- IL-2 level ([4]; splenic lymphocytes of recipients, 10 mcg fed donor cells vs mock): significant decreases
- MOG induced IL-13 production ([5]; dosed vs mock dosed): increased
- IFN-γ level ([5]; fed vs mock fed): significant decreases
- IL-1β level ([5]; fed vs mock fed): significant decreases
- IL-2 level ([5]; fed vs mock fed): significant decreases
- IL-12 level ([5]; fed vs mock fed): significant decreases
- IL-17 (Teff) level ([5]; fed vs mock fed): significant decreases
- TNF-α level ([5]; fed vs mock fed): significant decreases
- toxicity [6]: no detectable toxicity
- group clinical score at day 30 ([7]; recipients of donor splenocytes from 1 mcg fed mice): 1.4
- group clinical score at day 30 ([7]; recipients of donor splenocytes from 10 mcg fed mice): 0.88
- mean group inflammatory score (CNS inflammatory foci) ([8]; recipients of 1 mcg fed donors): 4.87±0.22
- mean group inflammatory score (CNS inflammatory foci) ([8]; recipients of 10 mcg fed donors): 5.91±0.22
- induction of experimental autoimmune encephalomyelitis [9]: significantly inhibits
- IL-12p70 level ([10]; 10 mcg dosed vs mock fed): decreased
- TNF-α level ([10]; 10 mcg dosed vs mock fed): decreased
- IFN-γ level [10, 16]: significant decreases
- IL-1β level [10, 16]: significant decreases
- IL-2 level [10, 16]: significant decreases
- MOG induced IL-4 production ([10]; dosed vs mock dosed): increased
- MOG induced IL-10 production ([10]; dosed vs mock dosed): increased
- MOG induced IL-13 production ([10]; dosed vs mock dosed): increased
- mean group inflammatory score (inflammatory foci) ([11]; 1 mcg fed group): 6.4±0.16
- mean group inflammatory score (inflammatory foci) ([11]; 10 mcg fed group): 5.55±0.28

Substance: Adrenocorticotropin hormone (SYSMEHFRWGKPVGKKRRPVKVYPNGAEDESAEAFPLEF; Corticotropin; UniProt P01189 138-176, looked up) [ACTH]
- reduction of innate immune cytokines IL-1β or TNF-α [12]: no reduction
